# Measurements taken from ChEMBL document CHEMBL4364276, “Discovery of 4-phenyl-2H-benzo[b][1,4]oxazin-3(4H)-one derivatives as potent and orally active PI3K/mTOR dual inhibitors” (Eur J Med Chem, 2019).
# Legend:
# [1] = biological target: Cyclin-Y/Cyclin-dependent kinase 16 (Homo sapiens) (UniProt Q00536+Q8ND76); experiment: Inhibition of human CDK16/cyclin-Y at 100 nM using RB protein as substrate by [gamma-33P]-ATP assay; type: protein-complex assay
# [2] = biological target: Misshapen-like kinase 1 (Homo sapiens) (UniProt Q8N4C8); experiment: Inhibition of human MINK1 at 100 nM using MBP as substrate by [gamma-33P]-ATP assay
# [3] = biological target: Phosphatidylinositol 4,5-bisphosphate 3-kinase catalytic subunit gamma isoform (Homo sapiens, UniProt P48736); experiment: Inhibition of recombinant human full length N-terminal DYKDDDDK-tagged PI3Kgamma (1 to 1102 residues) expressed in baculovirus expression system using PIP2 as substrate incubated for 2 hrs by ADP-Glo assay
# [4] = biological target: Serine/threonine-protein kinase SIK2 (Homo sapiens) (UniProt Q9H0K1); experiment: Inhibition of human SIK2 at 100 nM using AMARAASAAALARRR as substrate by [gamma-33P]-ATP assay
# [5] = biological target: Dual specificity protein kinase CLK4 (Homo sapiens) (UniProt Q9HAZ1); experiment: Inhibition of human CLK4 at 100 nM using MBP as substrate by [gamma-33P]-ATP assay
# [6] = biological target: Calcium/calmodulin-dependent protein kinase type II subunit beta (Homo sapiens) (UniProt Q13554); experiment: Inhibition of human CAMK2B at 100 nM using KKALRRQETVDAL as substrate by [gamma-33P]-ATP assay
# Chain of Calcium/calmodulin-dependent protein kinase type II subunit beta (Homo sapiens) (Q13554 whole entry): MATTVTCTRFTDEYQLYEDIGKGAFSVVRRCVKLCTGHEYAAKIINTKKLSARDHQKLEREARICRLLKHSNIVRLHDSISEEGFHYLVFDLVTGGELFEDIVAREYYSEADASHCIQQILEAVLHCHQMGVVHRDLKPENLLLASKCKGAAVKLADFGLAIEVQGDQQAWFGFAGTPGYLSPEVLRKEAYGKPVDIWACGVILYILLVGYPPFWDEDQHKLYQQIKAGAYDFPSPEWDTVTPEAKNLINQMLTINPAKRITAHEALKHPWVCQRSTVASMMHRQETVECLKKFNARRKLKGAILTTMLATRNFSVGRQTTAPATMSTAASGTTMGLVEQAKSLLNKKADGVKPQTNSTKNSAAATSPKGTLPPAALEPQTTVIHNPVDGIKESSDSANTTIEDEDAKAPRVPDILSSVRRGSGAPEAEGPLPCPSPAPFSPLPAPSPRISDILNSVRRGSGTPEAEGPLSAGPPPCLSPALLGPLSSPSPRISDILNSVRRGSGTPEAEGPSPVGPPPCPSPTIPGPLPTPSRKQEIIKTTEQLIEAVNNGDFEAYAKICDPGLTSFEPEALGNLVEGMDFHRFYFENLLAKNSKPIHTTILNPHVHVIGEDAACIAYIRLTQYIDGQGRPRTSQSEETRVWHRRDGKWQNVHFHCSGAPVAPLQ
# [7] = biological target: Serine/threonine-protein kinase SIK3 (Homo sapiens) (UniProt Q9Y2K2); experiment: Inhibition of human SIK3 at 100 nM using AMARAASAAALARRR as substrate by [gamma-33P]-ATP assay
# [8] = biological target: Mitogen-activated protein kinase 1 (Homo sapiens) (UniProt P28482); experiment: Inhibition of human ERK2 at 100 nM using MBP as substrate by [gamma-33P]-ATP assay
# [9] = biological target: Inhibitor of nuclear factor kappa-B kinase subunit alpha (Homo sapiens) (UniProt O15111); experiment: Inhibition of human IKKalpha at 100 nM using KKKKERLLDDRHDSGLDSMKDEE as substrate by [gamma-33P]-ATP assay
# [10] = biological target: Serine/threonine-protein kinase PAK 5 (Homo sapiens) (UniProt Q9P286); experiment: Inhibition of human PAK5 at 100 nM using RRRLSFAEPG as substrate by [gamma-33P]-ATP assay
# [11] = biological target: SRSF protein kinase 2 (Homo sapiens) (UniProt P78362); experiment: Inhibition of human SRPK2 at 100 nM using GRSRSRSRSR as substrate by [gamma-33P]-ATP assay
# Chain of SRSF protein kinase 2 (Homo sapiens) (P78362 whole entry, looked up): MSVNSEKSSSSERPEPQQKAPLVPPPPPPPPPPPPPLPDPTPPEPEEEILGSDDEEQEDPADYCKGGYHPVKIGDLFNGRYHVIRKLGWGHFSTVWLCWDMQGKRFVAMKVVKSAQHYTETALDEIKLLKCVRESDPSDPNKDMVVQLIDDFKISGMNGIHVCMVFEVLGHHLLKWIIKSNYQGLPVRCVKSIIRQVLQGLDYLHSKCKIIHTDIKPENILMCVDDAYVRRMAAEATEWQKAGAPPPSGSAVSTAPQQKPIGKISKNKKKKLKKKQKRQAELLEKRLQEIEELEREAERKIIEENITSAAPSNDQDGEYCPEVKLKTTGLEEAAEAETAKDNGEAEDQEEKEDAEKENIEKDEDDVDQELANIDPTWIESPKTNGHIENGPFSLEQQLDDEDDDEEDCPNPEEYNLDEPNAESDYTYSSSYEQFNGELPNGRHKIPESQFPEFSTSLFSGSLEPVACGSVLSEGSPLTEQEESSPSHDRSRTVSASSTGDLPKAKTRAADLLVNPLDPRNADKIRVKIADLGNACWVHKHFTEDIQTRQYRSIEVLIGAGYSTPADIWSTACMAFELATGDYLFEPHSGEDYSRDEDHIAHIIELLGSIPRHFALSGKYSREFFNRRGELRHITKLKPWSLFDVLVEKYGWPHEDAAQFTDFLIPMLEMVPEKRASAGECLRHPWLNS
# [12] = biological target: CDK9/cyclin T1 (Homo sapiens) (UniProt O60563+P50750); experiment: Inhibition of human CDK9/cyclin-T1 at 100 nM using KTFCGTPEYLAPEVRREPRILSEEEQEMFRDFDYIADWC as substrate by [gamma-33P]-ATP assay; type: protein-complex assay
# [13] = biological target: Ephrin type-B receptor 2 (Homo sapiens) (UniProt P29323); experiment: Inhibition of human EPHB2 at 100 nM using poly[Glu:Tyr] (4:1) as substrate by [gamma-33P]-ATP assay
# [14] = biological target: Protein kinase C zeta type (Homo sapiens) (UniProt Q05513); experiment: Inhibition of human PKCzeta at 100 nM using ERMRPRKRQGSVRRRV as substrate by [gamma-33P]-ATP assay
# [15] = biological target: Ribosomal protein S6 kinase beta-1 (Homo sapiens) (UniProt P23443); experiment: Inhibition of human p70S6K at 100 nM using KKRNRTLTK as substrate by [gamma-33P]-ATP assay
# [16] = biological target: Dual specificity mitogen-activated protein kinase kinase 2 (Homo sapiens) (UniProt P36507); experiment: Inhibition of human MEK2 at 100 nM using ERK2 as substrate by [gamma-33P]-ATP assay
# [17] = biological target: Protein kinase C iota type (Homo sapiens) (UniProt P41743); experiment: Inhibition of human PKCiota at 100 nM using ERMRPRKRQGSVRRRV as substrate by [gamma-33P]-ATP assay
# Chain of Protein kinase C iota type (Homo sapiens) (P41743 whole entry): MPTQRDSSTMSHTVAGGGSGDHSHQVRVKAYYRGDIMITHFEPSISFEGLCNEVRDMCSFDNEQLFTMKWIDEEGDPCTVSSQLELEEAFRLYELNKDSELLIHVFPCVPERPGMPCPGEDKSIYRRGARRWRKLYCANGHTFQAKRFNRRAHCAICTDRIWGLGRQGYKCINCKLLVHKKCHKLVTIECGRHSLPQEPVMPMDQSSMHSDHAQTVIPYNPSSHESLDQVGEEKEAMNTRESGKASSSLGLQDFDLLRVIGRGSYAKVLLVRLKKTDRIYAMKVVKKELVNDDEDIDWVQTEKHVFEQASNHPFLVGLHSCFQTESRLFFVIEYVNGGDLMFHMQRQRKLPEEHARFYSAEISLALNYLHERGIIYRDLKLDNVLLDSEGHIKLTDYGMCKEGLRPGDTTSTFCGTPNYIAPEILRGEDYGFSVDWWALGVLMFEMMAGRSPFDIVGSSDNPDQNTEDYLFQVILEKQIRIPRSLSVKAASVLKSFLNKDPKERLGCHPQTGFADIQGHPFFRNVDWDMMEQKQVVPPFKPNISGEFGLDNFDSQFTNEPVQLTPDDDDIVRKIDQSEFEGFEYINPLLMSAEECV
# [18] = biological target: Activin receptor type-1-like (Homo sapiens) (UniProt P37023); experiment: Inhibition of human ALK1 at 100 nM using casein as substrate by [gamma-33P]-ATP assay
# [19] = biological target: Tyrosine-protein kinase HCK (Homo sapiens) (UniProt P08631); experiment: Inhibition of human HCK at 100 nM using KVEKIGEGTYGVVYK as substrate by [gamma-33P]-ATP assay
# Chain of Tyrosine-protein kinase HCK (Homo sapiens) (P08631 2-526 limits assumed): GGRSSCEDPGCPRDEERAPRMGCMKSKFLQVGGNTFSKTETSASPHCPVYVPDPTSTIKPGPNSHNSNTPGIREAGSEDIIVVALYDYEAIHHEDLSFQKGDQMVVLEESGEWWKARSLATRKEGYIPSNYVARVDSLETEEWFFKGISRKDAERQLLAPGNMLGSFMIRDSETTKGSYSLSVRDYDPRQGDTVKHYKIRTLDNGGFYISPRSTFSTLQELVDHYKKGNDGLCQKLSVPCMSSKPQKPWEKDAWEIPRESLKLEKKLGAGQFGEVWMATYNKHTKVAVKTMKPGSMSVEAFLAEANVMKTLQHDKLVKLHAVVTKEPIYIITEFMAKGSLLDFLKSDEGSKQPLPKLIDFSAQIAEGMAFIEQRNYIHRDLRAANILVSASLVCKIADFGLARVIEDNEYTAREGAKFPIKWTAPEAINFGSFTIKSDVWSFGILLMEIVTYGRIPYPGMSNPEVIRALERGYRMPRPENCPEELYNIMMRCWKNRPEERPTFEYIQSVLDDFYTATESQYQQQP
# [20] = biological target: Tau-tubulin kinase 1 (Homo sapiens) (UniProt Q5TCY1); experiment: Inhibition of human TTBK1 at 100 nM using MBP as substrate by [gamma-33P]-ATP assay
# [21] = Inhibition of PI3K/Akt/mTOR signaling in human HeLa cells assessed as reduction in S6 phosphorylation incubated for 24 hrs by Western blot analysis; type: cell-based
# [22] = biological target: SRSF protein kinase 3 (Homo sapiens) (UniProt Q9UPE1); experiment: Inhibition of human MSSK1 at 100 nM using GRSRSRSRSR as substrate by [gamma-33P]-ATP assay
# [23] = biological target: Serine/threonine-protein kinase Sgk2 (Homo sapiens) (UniProt Q9HBY8); experiment: Inhibition of human SGK2 at 100 nM using KGSGSGRPRTSSFAEG as substrate by [gamma-33P]-ATP assay
# Chain of Serine/threonine-protein kinase Sgk2 (Homo sapiens) (Q9HBY8 whole entry): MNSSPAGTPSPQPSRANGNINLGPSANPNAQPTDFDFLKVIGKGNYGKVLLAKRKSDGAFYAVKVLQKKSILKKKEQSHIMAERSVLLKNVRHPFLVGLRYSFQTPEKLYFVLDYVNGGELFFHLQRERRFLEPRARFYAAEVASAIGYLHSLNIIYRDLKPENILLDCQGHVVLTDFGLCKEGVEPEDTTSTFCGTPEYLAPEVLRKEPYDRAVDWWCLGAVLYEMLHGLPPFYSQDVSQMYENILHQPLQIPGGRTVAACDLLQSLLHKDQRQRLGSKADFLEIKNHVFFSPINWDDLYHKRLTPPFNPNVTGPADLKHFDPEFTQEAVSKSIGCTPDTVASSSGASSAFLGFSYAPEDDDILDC
# [24] = biological target: Serine/threonine-protein kinase N1 (Homo sapiens) (UniProt Q16512); experiment: Inhibition of human PKN1 at 100 nM using KKLNRTLSVA as substrate by [gamma-33P]-ATP assay
# Chain of Serine/threonine-protein kinase N1 (Homo sapiens) (Q16512 2-942 limits assumed): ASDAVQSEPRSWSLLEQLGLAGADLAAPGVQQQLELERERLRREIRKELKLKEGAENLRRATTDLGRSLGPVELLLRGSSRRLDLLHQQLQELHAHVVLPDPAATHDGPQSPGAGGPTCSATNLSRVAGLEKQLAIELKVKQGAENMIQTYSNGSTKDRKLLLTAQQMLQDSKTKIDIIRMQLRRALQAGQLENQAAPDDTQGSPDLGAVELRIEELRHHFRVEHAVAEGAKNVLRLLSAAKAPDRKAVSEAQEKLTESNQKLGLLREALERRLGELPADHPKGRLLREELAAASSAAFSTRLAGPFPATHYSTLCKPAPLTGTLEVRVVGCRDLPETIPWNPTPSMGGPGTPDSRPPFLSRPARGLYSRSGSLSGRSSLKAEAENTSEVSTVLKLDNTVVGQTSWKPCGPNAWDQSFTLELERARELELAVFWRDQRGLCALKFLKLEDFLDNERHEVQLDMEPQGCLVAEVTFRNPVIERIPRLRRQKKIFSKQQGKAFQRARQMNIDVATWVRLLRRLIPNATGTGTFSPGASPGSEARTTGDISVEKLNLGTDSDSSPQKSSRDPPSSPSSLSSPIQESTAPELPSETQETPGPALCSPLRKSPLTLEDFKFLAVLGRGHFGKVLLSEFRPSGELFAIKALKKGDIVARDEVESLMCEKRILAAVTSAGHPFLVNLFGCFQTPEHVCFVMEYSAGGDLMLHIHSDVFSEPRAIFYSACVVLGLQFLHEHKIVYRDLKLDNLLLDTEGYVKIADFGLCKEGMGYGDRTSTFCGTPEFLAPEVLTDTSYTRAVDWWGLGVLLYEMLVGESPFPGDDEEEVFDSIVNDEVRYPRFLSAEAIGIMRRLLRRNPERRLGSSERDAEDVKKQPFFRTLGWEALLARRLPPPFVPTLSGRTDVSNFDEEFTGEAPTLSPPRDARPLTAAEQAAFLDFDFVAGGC
# HeLa = experiment: Antiproliferative activity against human HeLa cells assessed as reduction in cell viability incubated for 72 hrs by MTT assay; type: functional, cell-based
# [25] = biological target: Serine/threonine-protein kinase Sgk3 (Homo sapiens) (UniProt Q96BR1); experiment: Inhibition of human SGK3 at 100 nM using GRPRTSSFAEG as substrate by [gamma-33P]-ATP assay
# [26] = biological target: Mitogen-activated protein kinase 13 (Homo sapiens) (UniProt O15264); experiment: Inhibition of human p38delta at 100 nM using MBP as substrate by [gamma-33P]-ATP assay
# [27] = biological target: Activated CDC42 kinase 1 (Homo sapiens) (UniProt Q07912); experiment: Inhibition of human ACK1 at 100 nM using EAIYAAPFAKKK as substrate by [gamma-33P]-ATP assay
# Chain of Activated CDC42 kinase 1 (Homo sapiens) (Q07912 whole entry, looked up): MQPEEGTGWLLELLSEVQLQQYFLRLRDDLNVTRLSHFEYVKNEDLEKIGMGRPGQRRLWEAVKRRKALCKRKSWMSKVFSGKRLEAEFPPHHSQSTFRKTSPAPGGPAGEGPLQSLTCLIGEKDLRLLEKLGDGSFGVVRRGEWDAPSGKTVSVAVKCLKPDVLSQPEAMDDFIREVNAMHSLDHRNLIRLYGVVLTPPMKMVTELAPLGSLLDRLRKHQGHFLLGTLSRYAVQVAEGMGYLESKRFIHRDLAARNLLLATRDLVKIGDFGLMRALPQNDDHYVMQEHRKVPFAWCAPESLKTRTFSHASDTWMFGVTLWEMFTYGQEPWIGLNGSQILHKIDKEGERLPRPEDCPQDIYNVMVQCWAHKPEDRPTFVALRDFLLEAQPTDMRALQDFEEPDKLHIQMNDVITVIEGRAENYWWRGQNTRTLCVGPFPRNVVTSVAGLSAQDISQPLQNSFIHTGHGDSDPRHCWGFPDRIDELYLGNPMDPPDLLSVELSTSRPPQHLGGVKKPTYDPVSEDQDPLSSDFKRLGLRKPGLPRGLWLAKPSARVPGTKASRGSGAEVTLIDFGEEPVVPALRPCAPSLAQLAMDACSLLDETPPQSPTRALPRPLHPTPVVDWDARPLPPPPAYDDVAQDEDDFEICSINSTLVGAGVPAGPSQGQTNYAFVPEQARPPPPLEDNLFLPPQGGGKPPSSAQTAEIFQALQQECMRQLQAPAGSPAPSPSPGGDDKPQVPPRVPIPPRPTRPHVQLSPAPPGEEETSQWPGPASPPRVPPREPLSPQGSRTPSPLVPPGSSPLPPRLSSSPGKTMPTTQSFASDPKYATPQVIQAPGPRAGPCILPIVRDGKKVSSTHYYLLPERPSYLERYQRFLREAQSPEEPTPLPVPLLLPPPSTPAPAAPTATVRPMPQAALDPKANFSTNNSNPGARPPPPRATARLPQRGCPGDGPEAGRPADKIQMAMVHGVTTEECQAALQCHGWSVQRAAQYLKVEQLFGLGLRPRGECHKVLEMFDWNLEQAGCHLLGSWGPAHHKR
# [28] = biological target: Eukaryotic translation initiation factor 2-alpha kinase 3 (Homo sapiens) (UniProt Q9NZJ5); experiment: Inhibition of human EIF2AK3 at 100 nM using MBP as substrate by [gamma-33P]-ATP assay
# [29] = biological target: Protein-tyrosine kinase 2-beta (Homo sapiens) (UniProt Q14289); experiment: Inhibition of human PYK2 at 100 nM using poly[Glu:Tyr] (4:1) as substrate by [gamma-33P]-ATP assay
# [30] = biological target: Dual specificity mitogen-activated protein kinase kinase 3 (Homo sapiens) (UniProt P46734); experiment: Inhibition of human MEK3 at 100 nM using p38alpha as substrate by [gamma-33P]-ATP assay
compound,measurement,setting,value
COc1ccc(N2C(=O)COc3ccc(-c4cnc(OC)c(NS(=O)(=O)c5ccc(F)cc5)c4)cc32)cc1,inhibition,[1],0.27%
same,inhibition,[2],9.96%
same,IC50,[3],0.022 µM
same,inhibition,[4],-3.42%
same,inhibition,[5],6.64%
same,inhibition,[6],5.36%
same,inhibition,[7],8.49%
same,inhibition,[8],17.4%
same,inhibition,[9],-2.43%
same,inhibition,[10],-1.26%
same,inhibition,[11],-0.24%
same,inhibition,[12],16.8%
same,inhibition,[13],-6.07%
same,inhibition,[14],8.59%
same,inhibition,[15],0.03%
same,inhibition,[16],1.12%
same,inhibition,[17],-2.31%
same,inhibition,[18],-8.35%
same,inhibition,[19],7.23%
same,inhibition,[20],-1.55%
same,inhibition,[21],Dose-dependent effect
same,inhibition,[22],8.87%
same,inhibition,[23],5.89%
same,inhibition,[24],16.8%
same,IC50,HeLa,1.22 µM
same,inhibition,[25],3.8%
same,inhibition,[26],13.9%
same,inhibition,[27],10.4%
same,inhibition,[28],23.3%
same,inhibition,[29],6.22%
same,inhibition,[30],1.4%
